From article PMC11053631 (Pharmaceuticals, 2024)
Converted amounts (≈) assume the structure as drawn. Where two headings read alike, the source gives them in different places.

What was measured:
[1] = Dynamic vapor sorption (DVS) hygroscopicity; type: physicochemical; conditions: 25 °C
Description: The DVS profiles of different solid forms were tested on a SMS Intrinsic instrument, UK. To make sure each sample particle size was uniform, all samples were screened at 100 mesh (ΦA = 0.148 mm). Samples of 10–20 mg were used in the experiments. The DVS data were collected in an RH range of 0–95%. If the sample mass changes by less than 0.02% in 60 min, the next RH is conducted in a 5% step.

[2] = Wettability test by film flotation; type: physicochemical
Description: To confirm the hypothesis given in the section discussing […] surface analysis, wettability tests using film flotation methods were conducted in SGF with/without surfactants. […] The wettability test was performed in pure SGF and SGF with 0.1% sodium dodecyl sulfonate (SDS) or tween 80 using film flotation methods.

[3] = Oral pharmacokinetic study in rats; type: in vivo; conditions: Sprague Dawley, rat, fasted male rats, oral 200 mg/kg in soybean oil, plasma treated with β-glucuronidase/sulfatase
Description: The in vivo pharmacokinetic investigations of the CUR-L-CN co-crystal and the marketed CUR crystal were carried out in fasted male rats. In vivo, CUR is easily conjugated, and it can be conjugated with glucuronic acid and sulfate to form monoglucuronides, monosulfates, and mixed glucuronide/sulfates.
After administration, approximately 0.4 mL of blood was collected from the orbit of the rats into heparinized tubes at 20 min, 40 min, 1 h, 1.5 h, 2.5 h, 4 h, 6 h, and 8 h. Plasma samples (100 μL) were precisely aspirated and vortexed with 50 μL of β-glucuronidase and sulfatase buffer at 37 °C for 60 min. Plasma samples were protein precipitated by adding 0.45 mL of methanol (0.2% acetic acid). After 10 min of shaking, the samples were centrifuged at 14,000 rpm for 3 min. Subsequently, the supernatants were analyzed via HPLC/MS. All experimental procedures were approved by the Animal Ethics Committee.
HPLC methods and conditions were the same as 4.13. A 10 µL sample was injected each time, and the flow rate of the mobile phase was set as 0.6 mL/min.
The AUC0–t was calculated from plasma concentrations observed from 0 to 8 h using a linear trapezoidal approach.

[4] = Powder dissolution in SGF and SIF; type: physicochemical; conditions: for solubility at 180 min: thermodynamic from solid, 50 rpm, read-out: maximum solubility
Description: CUR-L-CN dissolves quickly and reaches its maximum concentration in 20 min. […] To understand this phenomenon, the residual powders after dissolution experiments were filtered and dried for PXRD analysis.
A mini bath dissolution device was used in the experiments, and a Julabo-5 heater was equipped for heating. The experiments were conducted at 37 °C with a rotational speed of 50 rpm. […] The dissolution rate experiments were measured in SGF and SIF containing 0.5% tween 80. SGF was prepared by diluting 16.4 mL of 10% HCl solution to 1000 mL with pure water. To prepare SIF, 6.8 g of KH2PO4 was dissolved in 500 mL of water; then, the pH was adjusted to 6.8 with NaOH solution with a concentration of 0.1 mol/L. At specified time points, i.e., 5 min, 10 min, 15 min, 20 min, 25 min, 30 min, 40 min, 50 min, 60 min, 90 min, 120 min, and 180 min, 0.5 mL of solution was withdrawn with a syringe. The collected solution was filtered through a 0.45 µm nylon filter and then subjected to HPLC determination. The dissolution studies of each solid form were conducted in triplicate (n = 3). After dissolution experiments, the residual samples were filtered and dried under vacuum for PXRD analysis.
The equipment has a diode array detector. An Agilent Zorbax Eclipse Plus C18 column was used in the experiments; it has a diameter of 4.6 mm, a length of 150 mm, and a filling aperture of 5 µm. The mobile phase contained 52% glacial acetic acid (4%) aqueous solution and 48% acetonitrile. The column temperature was set as 35 °C, and the UV-vis wavelength was set to 430 nm. A 10 µL sample was injected each time and the flow rate of the mobile phase was aet as 1 mL/min.

[5] = rats, intravenous and oral administration; cited from earlier work
[6] = set-up: method as in U.S. Expert Review Board; conditions: adults; ref U.S. Expert Review Board; cited from earlier work

Row | SMILES | mass change ([1]; during 0%-95% RH) | wettability (powder sinking) ([2]; SGF containing 0.1% SDS, after 10 min) | wettability (powder sinking) ([2]; SGF without surfactant) | Cmax [3] | Tmax [3] | AUC(0-t) ([3]; 0 to 8 h, read-out: AUC0–8) | time to reach maximum concentration in dissolution ([4]; powder dissolution, 37 °C) | solubility at 180 min ([4]; simulated gastric fluid (SGF) with 0.5% tween 80, aqueous with cosolvent or surfactant or cyclodextrin, SGF containing 0.5% tween 80, 37 °C) | solubility at 180 min ([4]; simulated intestinal fluid (SIF) with 0.5% tween 80, aqueous with cosolvent or surfactant or cyclodextrin, SIF pH 6.8 containing 0.5% tween 80, 37 °C) | oral bioavailability [5] | water uptake ([1]; at 40% RH) | water uptake / water content ([1]; at 95% RH) | water that cannot be removed ([1]; when RH decreases to 0%) | dose rated as safe as nutritional supplement [6]
1 | COc1cc(/C=C/C(=O)CC(=O)/C=C/c2ccc(O)c(OC)c2)ccc1O [CUR, Curcumin] | nearly no mass change | only a small quantity of CUR had sunk | could not sink into the fluid | 67.9 ng/mL | 1.5 h | 110 ng·h/mL | continues to increase over 180 min | 48.2 µg/mL (≈ 131 µM) | 24.5 µg/mL (≈ 66.5 µM) | about 1% | – | – | – | –
2 | C[N+](C)(C)C[C@H](O)CC(=O)[O-] [L-CN, L-carnitine] | – | – | – | – | – | – | – | – | – | – | 39.9% | 174.2% | 23.6% | 20 mg/kg/day
